Reference: article PMC3344887 (PLoS ONE, 2012)
Read-outs that look alike come from different tables or passages of the source.

Columns and labels:
[1] = molecular target: SERT (Homo sapiens, UniProt P31645); conditions: % of plasma sample dilution, undiluted plasma = 100%; plasma 120 min after MDMA/placebo; mean±SEM
[2] = parameters: method as in earlier work; conditions: cited from earlier work
[3] = molecular target: T1, NET (Homo sapiens, UniProt P23975); assay: Radioligand binding, [3H]-nisoxetine, HEK 293 membranes; parameters: expressed in transfected cells; host or cells: HEK 293 cells (Invitrogen), stably transfected
[4] = molecular target: T1, NET; conditions: % of plasma sample dilution, undiluted plasma = 100%; plasma 120 min after MDMA/placebo; mean±SEM
[5] = tested on: healthy subjects; assay: Adjective Mood Rating Scale (AMRS), clinical study; assay type: in vivo, humans; conditions: peak change from baseline, mean±SEM, 16 subjects
Protocol: (§1) The washout periods between the sessions were at least 10 days long.
(§2) Identical placebo (lactose) capsules were prepared. […] Drugs were administered without food.
The psychometric measures included Visual Analog Scales (VAS), [10], the Adjective Mood Rating Scale (AMRS), and 5-Dimensions of Altered States of Consciousness (5D-ASC), [23]. […] The VASs were presented as 100 mm horizontal lines marked “not at all" on the left and “extremely" on the right. The VASs for “closeness to others," “open," and “talkative" were bidirectional (±50 mm). The VASs were administered 4 h before and 0, 0.33, 1, 1.5, 2, 2.5, 3, 3.5, 4, and 5 h after MDMA or placebo administration. […] The AMRS contains subscales for activity, extroversion and introversion, well-being, emotional excitation, anxiety-depression, and dreaminess. The 5D-ASC rating scale measures alterations in mood, perception, experience of self in relation to the environment, and thought disorder. The 5D-ASC rating scale comprises five subscales or dimensions and 11 lower-order scales. The 5D-ASC dimension “oceanic boundlessness" (OB, 27 items) measures derealization and depersonalization associated with positive emotional states, ranging from heightened mood to euphoric exaltation. […] The global ASC score was determined by adding the OB, AED, and VR scores. The 5D-ASC scale was administered 4 h after MDMA or placebo administration.
(§3) Clinical data values were transformed to differences from baseline. Peak effects (Emax) were determined for repeated measures. Emax values were compared using General Linear Models repeated-measures analysis of variance, with drug as within-subject factor, using Statistica 6.0 software (StatSoft, Tulsa, OK). Tukey post hoc comparisons were performed based on significant main effects of treatment. Additional analyses of variance were performed, with period as factor to exclude period effects. Correlation analyses were performed using Pearson’s correlations. The criterion for significance was p<0.05. Mean arterial pressure (MAP) was calculated from diastolic blood pressure and systolic blood pressure using the following formula: MAP = DBP+(SBP - DBP)/3.

[6] = cited from earlier work
[7] = molecular target: T2, DAT (Homo sapiens, UniProt Q01959); assay: Radioligand binding, [3H]-WIN35,428, HEK 293 membranes; parameters: expressed in transfected cells; host or cells: HEK 293 cells (Invitrogen), stably transfected
[8] = molecular target: T1, NET; assay: [3H]-NE uptake inhibition, method A (silicon oil); assay type: cell-based; parameters: expressed in transfected cells; host or cells: HEK 293 cells (Invitrogen), stably transfected
[9] = tested on: healthy subjects; assay: Physiologic measures (blood pressure, heart rate, body temperature), clinical study; assay type: in vivo, humans; conditions: peak change from baseline, mean±SEM, 16 subjects
Protocol: as §1, §2
(§4) Physiologic measures were assessed repeatedly 4, 3, 2, and 1 h before and 0, 0.33, 0.66, 1, 1.5, 2, 2.5, 3, 4, 5, and 6 h after MDMA or placebo administration. Heart rate, systolic blood pressure, and diastolic blood pressure were measured using an OMRON M7 blood pressure monitor (OMRON Healthcare Europe, Hoofddorp, The Netherlands). Measures were taken twice per time point with an interval of 1 min, and the average was used for the analysis. Core (tympanic) temperature was assessed using a GENIUS 2 ear thermometer (Tyco Healthcare Group, Watertown, NY). […] Adverse effects were assessed using the List of Complaints (LC), which consists of 66 items that yield a total adverse effects score and reliably measure physical and general discomfort.
as §3

[10] = molecular target: T2, DAT; conditions: % of plasma sample dilution, undiluted plasma = 100%; plasma 120 min after MDMA/placebo
[11] = tested on: HEK 293 cells; assay: Toxilight toxicity assay, cell integrity; assay type: cell-based, human
[12] = molecular target: T2, DAT; assay: cell-based
[13] = clinical; conditions: human, in vivo
Protocol: as §2
Plasma concentrations of copeptin were also determined in this study as reported elsewhere. […] No hydrolysis was performed. Thus, the values for HMMA represent the drug concentrations of the non-conjugated metabolite. All blood samples were collected on ice and centrifuged within 10 min at 4°C. The plasma was then stored at –20°C until the analysis.
Cmax and tmax were obtained directly from the observed concentration-time curves. […] Terminal elimination half-life (t 1/2) was calculated using λz and the equation t1/2 = ln2/λz. The area under the plasma concentration-time curve up to 6 h (AUC0-6h) was calculated using the linear trapezoidal rule. The AUC0–∞ was determined by extrapolation of AUC0–6h using λz. The PK parameters were determined using the PK functions for Excel (Microsoft, Redmont, CA, USA). Plasma concentrations were only determined up to 6 h after MDMA administration because the aim of the study was to assess potential changes in MDMA plasma levels while relevant pharmacodynamic effects or MDMA were present.

[14] = tested on: healthy subjects; assay: Adverse effects, List of Complaints, clinical study
Protocol: as §1, §2, §4

T2 sequence (Q01959 whole entry): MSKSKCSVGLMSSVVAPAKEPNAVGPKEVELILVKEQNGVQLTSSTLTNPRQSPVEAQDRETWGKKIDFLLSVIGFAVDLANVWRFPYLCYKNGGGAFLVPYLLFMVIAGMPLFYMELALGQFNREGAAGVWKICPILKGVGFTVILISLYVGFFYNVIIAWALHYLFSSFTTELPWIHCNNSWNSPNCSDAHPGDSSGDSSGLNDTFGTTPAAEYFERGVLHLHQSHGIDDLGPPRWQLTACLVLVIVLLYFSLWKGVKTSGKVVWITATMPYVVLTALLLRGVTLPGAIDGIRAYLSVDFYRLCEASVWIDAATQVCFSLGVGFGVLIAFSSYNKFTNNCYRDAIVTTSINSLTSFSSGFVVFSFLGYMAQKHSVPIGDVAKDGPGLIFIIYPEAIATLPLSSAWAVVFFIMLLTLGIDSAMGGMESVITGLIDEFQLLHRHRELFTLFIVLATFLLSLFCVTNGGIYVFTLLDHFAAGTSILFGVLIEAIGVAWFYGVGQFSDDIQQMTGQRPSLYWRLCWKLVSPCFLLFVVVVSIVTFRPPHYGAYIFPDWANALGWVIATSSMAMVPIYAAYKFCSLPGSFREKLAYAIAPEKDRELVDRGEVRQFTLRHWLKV
T1 sequence (P23975 whole entry): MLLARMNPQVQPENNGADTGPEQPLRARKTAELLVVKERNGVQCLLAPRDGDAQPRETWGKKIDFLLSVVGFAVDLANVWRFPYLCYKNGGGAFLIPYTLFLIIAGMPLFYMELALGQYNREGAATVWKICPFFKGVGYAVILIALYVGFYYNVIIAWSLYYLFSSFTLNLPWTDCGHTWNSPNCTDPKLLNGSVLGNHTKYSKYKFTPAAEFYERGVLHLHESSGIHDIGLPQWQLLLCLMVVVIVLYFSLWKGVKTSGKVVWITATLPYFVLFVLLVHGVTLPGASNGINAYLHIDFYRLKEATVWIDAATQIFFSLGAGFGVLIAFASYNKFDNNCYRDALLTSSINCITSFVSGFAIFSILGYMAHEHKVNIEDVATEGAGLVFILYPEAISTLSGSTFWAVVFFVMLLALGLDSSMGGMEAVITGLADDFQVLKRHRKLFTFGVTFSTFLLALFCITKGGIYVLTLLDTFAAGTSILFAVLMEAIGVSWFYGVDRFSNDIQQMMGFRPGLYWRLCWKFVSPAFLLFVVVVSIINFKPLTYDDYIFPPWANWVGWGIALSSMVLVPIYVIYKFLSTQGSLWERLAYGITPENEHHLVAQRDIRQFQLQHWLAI
SERT, sequence (P31645 whole entry): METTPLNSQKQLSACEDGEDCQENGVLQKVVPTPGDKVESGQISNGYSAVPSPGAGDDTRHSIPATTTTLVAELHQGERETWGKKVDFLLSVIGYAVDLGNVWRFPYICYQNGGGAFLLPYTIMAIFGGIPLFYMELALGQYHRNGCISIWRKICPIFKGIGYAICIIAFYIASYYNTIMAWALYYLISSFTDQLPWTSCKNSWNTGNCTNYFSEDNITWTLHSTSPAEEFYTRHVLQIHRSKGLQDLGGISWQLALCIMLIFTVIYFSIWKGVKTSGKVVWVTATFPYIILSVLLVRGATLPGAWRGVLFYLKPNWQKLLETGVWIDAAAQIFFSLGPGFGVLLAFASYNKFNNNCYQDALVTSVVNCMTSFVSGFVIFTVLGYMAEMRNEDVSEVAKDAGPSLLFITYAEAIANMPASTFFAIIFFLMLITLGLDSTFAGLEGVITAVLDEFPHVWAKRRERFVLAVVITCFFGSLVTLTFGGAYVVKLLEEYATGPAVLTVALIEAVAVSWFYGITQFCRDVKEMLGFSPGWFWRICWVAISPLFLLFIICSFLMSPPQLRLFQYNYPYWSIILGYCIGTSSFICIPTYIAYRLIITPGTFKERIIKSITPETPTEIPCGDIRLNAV

## CNC(C)Cc1ccc2c(c1)OCO2 (stereo not shown) [MDMA, 3,4-methylenedioxymethamphetamine]
[1]
  Ex vivo binding (IC50%) SERT: >25%
[2]
  Mean duration of subjective and cardiovascular effects: 3.5 h
  Time within which effects completely subside: 5 to 6 h
[3]
  Ki: 22.4 ± 14.6 µM
[4]
  Ex vivo binding (IC50%) NET: 23.4±0.7%
[5]
  AMRS Activity, Emin: −4.69±1.04
  AMRS Dreaminess, Emax: 2.94±0.66
  AMRS Emotional excitation, Emax: 4.94±0.97
  AMRS Extroversion, Emax: 3.50±0.61
  AMRS Introversion, Emax: 2.62±0.65
  AMRS Well-being, Emax: 7.06±1.01
[6]; 100 -125 mg dose
  T1/2: 8 to 9 h
[6]; pretreatment with paroxetine
  Increase of MDMA plasma levels: 30%
[6]; single dose
  Tmax: 2 to 2.4 h
[7]
  Ki: 6.52 ± 2.24 µM
[8]
  Ki: 0.47 µM
[8]; uptake inhibition
  Potency of NET inhibition relative to SERT: three-fold more potently
[9]; diastolic blood pressure
  DPB, Emax: 22.13±2.08 mm Hg
[9]; mean arterial pressure
  MAP, Emax: 21.76±2.73 mm Hg
[9]
  Heart rate, Emax: 26.06±2.77 beats/min
[9]; systolic blood pressure
  SBP, Emax: 29.94±3.41 mm Hg
[9]; tympanic
  Body temperature, Emax: 0.54±0.07 °C
[10]
  Ex vivo binding (IC50%) DAT: >25%
[11]
  Cell integrity after treatment: confirmed
[12]
  Ki: 16.7 µM
[13]
  Cmax: 254 ± 13.6 ng/mL
  Tmax: 2.66 ± 0.29 h
[13]; 125 mg
  Cmax: 221 ± 11.6 ng/mL
[13]; AUC0-6
  AUC(0-t): 1110 ± 57.2 ng·h/mL
[13]; AUC0-6, Placebo-MDMA session, mean±SEM, n=16
  AUC(0-t): 953 ± 45.9 ng·h/mL
[13]; AUC(0-∞)
  AUC(0-inf): 2910 ± 276 ng·h/mL
[13]; T1/2
  half-life: 7.14 ± 0.4 h
[13]; T1/2, Placebo-MDMA session, mean±SEM, n=16
  half-life: 8.17 ± 0.74 h
[13]; Placebo-MDMA session, mean±SEM, n=16
  Tmax: 2.34 ± 0.19 h
[14]; at 3 h, change from baseline, mean±SEM, 16 subjects
  List of Complaints (total score), Acute adverse effects: 5.56±1.72
[14]; at 24 h, change from baseline, mean±SEM, 16 subjects
  List of Complaints (total score), Sub-acute adverse effects: 3.88±1.09
[14]; clinical study
  Adverse effects produced: sweating, difficulty concentrating, thirst, and lack of appetite
